Source: US9783573B2, “IAP antagonists” (BRISTOL-MYERS SQUIBB COMPANY, priority 2012, dated 2017)

Target: N-His-Tb-BIR3 (241-356, XIAP) (Homo sapiens (Human), UniProt P98170)
Assay: biochemical
Type: binding
Conditions: fluoresceinated modified SMAC peptide, fluorescence polarization; read-out: XIAP BIR3 FPA IC50

SMILES	IC50
CN[C@@H](C)C(=O)N[C@H](C(=O)N1Cc2cc(NC(=O)c3cccc(CO[C@H]4C[C@@H](C(=O)N[C@@H]5CCCc6ccccc65)N(C(=O)[C@@H](NC(=O)[C@H](C)NC)C(C)(C)C)C4)c3)ccc2C[C@H]1C(=O)N[C@@H]1CCCc2ccccc21)C(C)(C)C [Example 52, (S)-2-((S)-3,3-Dimethyl-2-((S)-2-(methylamino)propanamido)butanoyl)-7-(3-((((3S,5S)-1-((S)-3,3-dimethyl-2-((S)-2-(methylamino)propanamido)butanoyl)-5-(((R)-1,2,3,4-tetrahydronaphthalen-1-yl)carbamoyl)pyrrolidin-3-yl)oxy)methyl)benzamido)-N-((R)-1,2,3,4-tetrahydronaphthalen-1-yl)-1,2,3,4-tetrahydroisoquinoline-3-carboxamide]	42 nM
CC[C@H](NC)C(=O)N[C@H](C(=O)N1Cc2cc(OCc3ccc(C(=O)N[C@H]4C[C@@H](C(=O)N[C@@H]5CCCc6ccccc65)N(C(=O)[C@@H](NC(=O)[C@H](C)NC)C(C)(C)C)C4)cc3)ccc2C[C@H]1C(=O)N[C@@H]1CCCc2ccccc21)C(C)(C)C [Example 43]	130 nM
CN[C@@H](C)C(=O)N[C@H](C(=O)N1Cc2cc(C(=O)NC3(C(=O)N[C@H]4C[C@@H](C(=O)N[C@@H]5CCCc6ccccc65)N(C(=O)[C@@H](NC(=O)[C@H](C)NC)C(C)(C)C)C4)CC3)ccc2C[C@H]1C(=O)N[C@@H]1CCCc2ccccc21)C(C)(C)C [Example 28, (S)-2-((S)-3,3-Dimethyl-2-((S)-2-(methylamino)propanamido)butanoyl)-N7-(1-(((3S,5S)-1-((S)-3,3-dimethyl-2-((S)-2-(methylamino)propanamido)butanoyl)-5-(((R)-1,2,3,4-tetrahydronaphthalen-1-yl)carbamoyl)pyrrolidin-3-yl)carbamoyl)cyclopropyl)-N3((R)-1,2,3,4-tetrahydronaphthalen-1-yl)-1,2,3,4-tetrahydroisoquinoline-3,7-dicarboxamide]	98 nM
CN[C@@H](C)C(=O)N[C@H](C(=O)N1Cc2cc(NC(=O)CCc3ccc(C(=O)N[C@H]4C[C@@H](C(=O)N[C@@H]5CCCc6ccccc65)N(C(=O)[C@@H](NC(=O)[C@H](C)NC)C(C)(C)C)C4)cc3)ccc2C[C@H]1C(=O)N[C@@H]1CCCc2ccccc21)C(C)(C)C [Example 8, (S)-2-((S)-3,3-Dimethyl-2-((S)-2-(methylamino)propanamido)butanoyl)-7-(3-(4-(((3S,5S)-1-((S)-3,3-dimethyl-2-((S)-2-(methylamino)propanamido)butanoyl)-5-(((R)-1,2,3,4-tetrahydronaphthalen-1-yl)carbamoyl)pyrrolidin-3-yl)carbamoyl)phenyl)propanamido)-N-((R)-1,2,3,4-tetrahydronaphthalen-1-yl)-1,2,3,4-tetrahydroisoquinoline-3-carboxamide]	57 nM
CN[C@@H](C)C(=O)N[C@H](C(=O)N1Cc2cc(NC(=O)C3CC4(C3)CC(C(=O)N[C@H]3C[C@@H](C(=O)N[C@@H]5CCCc6ccccc65)N(C(=O)[C@@H](NC(=O)[C@H](C)NC)C(C)(C)C)C3)C4)ccc2C[C@H]1C(=O)N[C@@H]1CCCc2ccccc21)C(C)(C)C (stereo partly drawn) [Example 7, N^2-((S)-2-((S)-3,3-Dimethyl-2-((S)-2-(methylamino)propanamido)butanoyl)-3-(((R)-1,2,3,4-tetrahydronaphthalen-1-yl)carbamoyl)-1,2,3,4-tetrahydroisoquinolin-7-yl)-N^6-((3S,5S)-1-((S)-3,3-dimethyl-2-((S)-2-(methylamino)propanamido)butanoyl)-5-(((R)-1,2,3,4-tetrahydronaphthalen-1-yl)carbamoyl)pyrrolidin-3-yl)spiro[3.3]heptane-2,6-dicarboxamide]	83 nM
CCN[C@@H](C)C(=O)N[C@H](C(=O)N[C@H](C(=O)N1Cc2cc(OCc3ccc(C(=O)N[C@H]4C[C@@H](C(=O)N[C@@H]5CCCc6ccccc65)N(C(=O)[C@@H](NC(=O)[C@H](C)NC)C(C)(C)C)C4)cc3)ccc2C[C@H]1C(=O)N[C@@H]1CCCc2ccccc21)C(C)(C)C)C(C)(C)C [Example 40, (S)-7-((4-(((3S,5S)-1-((S)-3,3-Dimethyl-2-((S)-2-(methylamino)propanamido)butanoyl)-5-(((R)-1,2,3,4-tetrahydronaphthalen-1-yl)carbamoyl)pyrrolidin-3-yl)carbamoyl)benzyl)oxy)-2-((S)-2-((S)-2-((S)-2-(ethylamino)propanamido)-3,3-dimethylbutanamido)-3,3-dimethylbutanoyl)-N-((R)-1,2,3,4-tetrahydronaphthalen-1-yl)-1,2,3,4-tetrahydroisoquinoline-3-carboxamide]	660 nM
CN[C@@H](C)C(=O)N[C@H](C(=O)N1Cc2cc(NC(=O)c3ccc4ccn(C(=O)NC5C[C@@H](C(=O)NC6CCCc7ccccc76)N(C(=O)[C@@H](NC(=O)[C@H](C)NC)C(C)(C)C)C5)c4c3)ccc2C[C@H]1C(=O)NC1CCCc2ccccc21)C(C)(C)C (stereo partly drawn) [Example 53, N^6-((3S)-2-((S)-3,3-Dimethyl-2-((S)-2-(methylamino)propanamido)butanoyl)-3-((1,2,3,4-tetrahydronaphthalen-1-yl)carbamoyl)-1,2,3,4-tetrahydroisoquinolin-7-yl)-N^1-((5S)-1-((S)-3,3-dimethyl-2-((S)-2-(methylamino)propanamido)butanoyl)-5-((1,2,3,4-tetrahydronaphthalen-1-yl)carbamoyl)pyrrolidin-3-yl)-1H-indole-1,6-dicarboxamide]	140 nM
CN[C@@H](C)C(=O)N[C@H](C(=O)N1Cc2cc(OC(=O)c3ccc(CO[C@H]4C[C@@H](C(=O)N[C@@H]5CCCc6ccccc65)N(C(=O)[C@@H](NC(=O)[C@H](C)NC)C(C)(C)C)C4)cc3)ccc2C[C@H]1C(=O)N[C@@H]1CCCc2ccccc21)C(C)(C)C [Example 48, (S)-2-((S)-3,3-Dimethyl-2-((S)-2-(methylamino)propanamido)butanoyl)-3-(((R)-1,2,3,4-tetrahydronaphthalen-1-yl)carbamoyl)-1,2,3,4-tetrahydroisoquinolin-7-yl 4-((((3S,5S)-1-((S)-3,3-dimethyl-2-((S)-2-(methylamino)propanamido)butanoyl)-5-(((R)-1,2,3,4-tetrahydronaphthalen-1-yl)carbamoyl)pyrrolidin-3-yl)oxy)methyl)benzoate]	92 nM
CN[C@@H](C)C(=O)N[C@H](C(=O)[C@@H]1C[C@H](NC(=O)[C@@H](CCC(F)(F)F)[C@@H](CCC(F)(F)F)C(=O)Nc2ccc3c(c2)CN(C(=O)[C@@H](NC(=O)[C@H](C)NC)C(C)(C)C)[C@H](C(=O)N[C@@H]2CCCc4ccccc42)C3)CN1C(=O)N[C@@H]1CCCc2ccccc21)C(C)(C)C [Example 37, (2S,3R)-N^1-((3S,5S)-5-((S)-3,3-dimethyl-2-((S)-2-(methylamino)propanamido)butanoyl)-1-(((R)-1,2,3,4-tetrahydronaphthalen-1-yl)carbamoyl)pyrrolidin-3-yl)-N^4-((S)-2-((S)-3,3-dimethyl-2-((S)-2-(methylamino)propanamido)butanoyl)-3-(((R)-1,2,3,4-tetrahydronaphthalen-1-yl)carbamoyl)-1,2,3,4-tetrahydroisoquinolin-7-yl)-2,3-bis(3,3,3-trifluoropropyl) succinamide]	110 nM
